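Grown in 96-well plates, cells were treated for 48 hours with each compound at five concentrations. Insufficient inhibition: endpoint recorded as highest concentration tested. TGI: total growth inhibition.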
What was measured:
Assay in all cases: NCI tumour cell line growth inhibition, 48 h
A498 renal = test system: A498 renal
A549 NSCLC = test system: A549 NSCLC
ACHN renal = test system: ACHN renal
M14 melanoma = test system: M14 melanoma
MCF7 breast = test system: MCF7 breast
OVCAR-3 ovarian = test system: OVCAR-3 ovarian
OVCAR-8 ovarian = test system: OVCAR-8 ovarian
SF-295 CNS = test system: SF-295 CNS
TK-10 renal = test system: TK-10 renal
UACC-257 melanoma = test system: UACC-257 melanoma

SMILES	TGI (A498 renal) [µM]	TGI (A549 NSCLC) [µM]	TGI (ACHN renal) [µM]	TGI (M14 melanoma) [µM]	TGI (MCF7 breast) [µM]	TGI (OVCAR-3 ovarian) [µM]	TGI (OVCAR-8 ovarian) [µM]	TGI (SF-295 CNS) [µM]	TGI (TK-10 renal) [µM]	TGI (UACC-257 melanoma) [µM]
C1=C[C@]2(CCC13OCCO3)COc1ccccc12	> 100	> 100	> 100	> 100	> 100	> 100	> 100	> 100	> 100	> 100
CSc1nc(=O)c(C#N)c(-c2ccccc2)n1C1OC(COC(C)=O)C(OC(C)=O)C(OC(C)=O)C1OC(C)=O (stereo not given)	> 100	> 100	> 100	> 100	> 100	> 100	> 100	> 100	> 100	> 100
COc1cccc(/C=N/n2c(Cc3ccc(Cl)cc3)n[nH]c2=O)c1	> 100	> 100	67.3	> 100	> 100	> 100	36.7	35.4	> 100	> 100
CC(C)(CN1CCCCC1)C(=O)/C=C/c1c(Cl)cccc1Cl	4.96	5.51	3.28	2.32	5.31	2.4	9.21	7.05	1.77	6.36

From PubChem BioAssay (NCI)
